Literature values in PMC3387528 (Journal of the American Chemical Society, 2011).

Columns and labels:
[1] = tested on: ApA (adenylyl(3′-5′)adenosine); details: substrate ApA; no coreagents; pH 7.2, 30 °C; ref [28]
dsDNA = details: substrate dsDNA; no coreagents; pH 7.0, 37 °C; ref [22]

SMILES | k2, second-order rate constant [1] [M⁻¹ s⁻¹] | k2, expressed as kcat/KM (dsDNA)
[Cl][Lu]([Cl])[Cl] [LuCl3] | 0.633 | 
[Eu+3] [Eu^3+] |  | 108 ^b M^−1 min^−1
